Measured values reported in patent US11945822B2, “Pyrazolo-triazine and/or pyrazolo-pxrimidine derivatives as selective inhibitor of cyclin dependent kinase” (QURIENT CO., LTD., priority 2018, dated 2024).

target: T1, CDK1/Cyclin B (Homo sapiens, UniProt P06493); assay: Enzymatic assay for CDK1 (FRET based LANCE Ultra kinase assay); assay type: biochemical; conditions: read-out: CDK1 enzymatic activity (IC50 range)
T1 construct: purchased Invitrogen PR4768C
In short: (§1)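 Each CDK complex ([…]) phosphorylated 68 nM ULight-MBP peptide with ATP at Km for 60 min at 23° C., against 8 compound doses (4-fold dilutions). EDTA/Eu-anti-phospho-MBP detection, 60 min, then TR-FRET emission at 615 and 665 nm.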

T1 sequence (P06493 whole entry): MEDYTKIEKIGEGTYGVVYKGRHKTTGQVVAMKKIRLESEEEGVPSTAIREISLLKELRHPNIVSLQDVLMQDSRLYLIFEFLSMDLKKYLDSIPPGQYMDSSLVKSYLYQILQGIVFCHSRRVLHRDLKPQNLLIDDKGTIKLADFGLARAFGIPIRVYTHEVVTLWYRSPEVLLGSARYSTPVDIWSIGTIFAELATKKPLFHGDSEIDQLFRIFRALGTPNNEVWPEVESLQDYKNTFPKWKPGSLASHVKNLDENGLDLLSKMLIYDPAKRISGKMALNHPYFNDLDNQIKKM
T1 sequence (P14635 whole entry partner): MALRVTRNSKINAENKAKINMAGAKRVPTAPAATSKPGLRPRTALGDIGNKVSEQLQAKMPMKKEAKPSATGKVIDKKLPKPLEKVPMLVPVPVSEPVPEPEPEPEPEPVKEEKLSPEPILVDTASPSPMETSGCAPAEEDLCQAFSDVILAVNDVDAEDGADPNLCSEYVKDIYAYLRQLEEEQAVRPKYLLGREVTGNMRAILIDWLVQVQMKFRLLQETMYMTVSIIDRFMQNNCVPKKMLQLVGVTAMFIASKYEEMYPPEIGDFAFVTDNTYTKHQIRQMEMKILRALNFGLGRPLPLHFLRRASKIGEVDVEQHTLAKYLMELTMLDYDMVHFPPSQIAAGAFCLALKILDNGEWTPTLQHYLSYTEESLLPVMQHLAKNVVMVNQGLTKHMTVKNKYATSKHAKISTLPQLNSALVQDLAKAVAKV

IC50 [nM] | SMILES
> 1000 | CC(C)c1cnn2c(N[C@@H](C)c3ccccc3-c3cc4ccccc4[nH]3)nc(N3CCC(N)CC3)nc12 [Compound 187]
> 1000 | COc1cccc(-c2cc3ccccc3[nH]2)c1CNc1nc(N2CCC(N)CC2)nc2c(C(C)C)cnn12 [Compound 186]
> 1000 | CC(C)c1cnn2c(NCc3c(O)cccc3-c3cc4ccccc4[nH]3)nc(N3CCC(N)CC3)nc12 [Compound 185]
> 1000 | Cc1[nH]c(-c2ccccc2CNc2nc(N3CCC(N)CC3)nc3c(C(C)C)cnn23)nc1C(=O)NC1CCOCC1 [Compound 178]

target: T2, CDK2/Cyclin A (Homo sapiens, UniProt P24941); assay: Enzymatic assay for CDK2 (FRET based LANCE Ultra kinase assay); assay type: biochemical; conditions: read-out: CDK2 enzymatic activity (IC50 range)
T2 construct: purchased Invitrogen PV6290
In short: as §1

IC50 [nM] | SMILES
> 1000 | CC(C)c1cnn2c(N[C@@H](C)c3ccccc3-c3cc4ccccc4[nH]3)nc(N3CCC(N)CC3)nc12 [Compound 187]
> 1000 | COc1cccc(-c2cc3ccccc3[nH]2)c1CNc1nc(N2CCC(N)CC2)nc2c(C(C)C)cnn12 [Compound 186]
> 1000 | CC(C)c1cnn2c(NCc3c(O)cccc3-c3cc4ccccc4[nH]3)nc(N3CCC(N)CC3)nc12 [Compound 185]
100 to 1000 | Cc1[nH]c(-c2ccccc2CNc2nc(N3CCC(N)CC3)nc3c(C(C)C)cnn23)nc1C(=O)NC1CCOCC1 [Compound 178]

target: T3, CDK5/p25 (Homo sapiens, UniProt Q00535); assay: Enzymatic assay for CDK5 (FRET based LANCE Ultra kinase assay); assay type: biochemical; conditions: read-out: CDK5 enzymatic activity (IC50 range)
T3 construct: purchased Invitrogen PR8543B
T3 sequence (Q00535 whole entry): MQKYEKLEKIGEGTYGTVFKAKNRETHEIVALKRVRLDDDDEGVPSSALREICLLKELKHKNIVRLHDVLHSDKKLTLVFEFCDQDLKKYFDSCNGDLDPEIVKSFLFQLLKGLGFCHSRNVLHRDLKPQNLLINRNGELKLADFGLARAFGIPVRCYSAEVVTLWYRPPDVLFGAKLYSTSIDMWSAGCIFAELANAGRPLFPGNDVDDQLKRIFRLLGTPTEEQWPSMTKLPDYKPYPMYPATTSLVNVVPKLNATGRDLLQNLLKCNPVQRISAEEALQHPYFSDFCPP
T3 sequence (Q15078 99-307 partner limits assumed): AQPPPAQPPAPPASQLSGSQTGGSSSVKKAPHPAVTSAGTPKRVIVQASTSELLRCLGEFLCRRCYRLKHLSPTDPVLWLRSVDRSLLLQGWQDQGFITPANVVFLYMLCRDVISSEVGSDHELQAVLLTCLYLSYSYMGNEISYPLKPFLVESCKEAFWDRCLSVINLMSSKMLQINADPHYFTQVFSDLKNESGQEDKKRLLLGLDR
In short: as §1

IC50 [nM] | SMILES
> 1000 | CC(C)c1cnn2c(N[C@@H](C)c3ccccc3-c3cc4ccccc4[nH]3)nc(N3CCC(N)CC3)nc12 [Compound 187]
> 1000 | COc1cccc(-c2cc3ccccc3[nH]2)c1CNc1nc(N2CCC(N)CC2)nc2c(C(C)C)cnn12 [Compound 186]
> 1000 | CC(C)c1cnn2c(NCc3c(O)cccc3-c3cc4ccccc4[nH]3)nc(N3CCC(N)CC3)nc12 [Compound 185]
< 100 | Cc1[nH]c(-c2ccccc2CNc2nc(N3CCC(N)CC3)nc3c(C(C)C)cnn23)nc1C(=O)NC1CCOCC1 [Compound 178]

target: T4, CDK7/Cyclin H/MNAT1 (Homo sapiens, UniProt P50613); assay: Enzymatic assay for CDK7 (FRET based LANCE Ultra kinase assay); assay type: biochemical; conditions: CDK7 over CDK1
T4 construct: purchased Invitrogen PR6749B
T4 sequence (P50613 whole entry): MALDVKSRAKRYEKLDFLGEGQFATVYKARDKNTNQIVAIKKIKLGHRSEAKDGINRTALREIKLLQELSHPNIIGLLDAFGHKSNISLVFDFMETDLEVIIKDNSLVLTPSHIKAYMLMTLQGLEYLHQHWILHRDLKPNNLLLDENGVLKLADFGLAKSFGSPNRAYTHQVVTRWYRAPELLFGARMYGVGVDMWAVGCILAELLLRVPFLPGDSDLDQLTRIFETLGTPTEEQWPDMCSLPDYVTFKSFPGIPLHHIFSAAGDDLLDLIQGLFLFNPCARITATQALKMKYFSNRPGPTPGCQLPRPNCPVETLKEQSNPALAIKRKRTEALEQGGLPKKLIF
T4 sequence (P51946 whole entry partner): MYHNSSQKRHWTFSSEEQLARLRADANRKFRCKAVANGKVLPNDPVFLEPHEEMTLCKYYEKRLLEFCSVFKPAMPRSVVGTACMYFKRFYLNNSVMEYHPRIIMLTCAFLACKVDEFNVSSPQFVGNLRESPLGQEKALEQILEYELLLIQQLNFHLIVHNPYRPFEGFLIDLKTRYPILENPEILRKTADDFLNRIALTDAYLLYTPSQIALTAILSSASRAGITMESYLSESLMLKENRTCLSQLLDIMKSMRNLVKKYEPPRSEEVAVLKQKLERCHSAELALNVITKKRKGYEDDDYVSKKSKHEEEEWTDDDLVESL
T4 sequence (P51948 whole entry partner): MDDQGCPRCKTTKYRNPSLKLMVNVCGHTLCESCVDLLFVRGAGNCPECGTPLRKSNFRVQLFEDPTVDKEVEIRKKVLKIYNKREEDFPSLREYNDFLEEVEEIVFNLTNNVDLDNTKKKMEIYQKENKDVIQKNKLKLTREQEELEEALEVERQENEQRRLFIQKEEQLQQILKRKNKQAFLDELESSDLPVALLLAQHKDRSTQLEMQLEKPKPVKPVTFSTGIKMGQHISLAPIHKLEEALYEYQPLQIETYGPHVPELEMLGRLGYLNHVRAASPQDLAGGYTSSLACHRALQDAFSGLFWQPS
In short: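 Inhibition was measured at Km ATP by time-resolved FRET between a Eu anti-phospho antibody and a phosphorylated ULight peptide. The enzyme was the purified CDK7/cyclin complex, and data were curve-fitted.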

CDK1/CDK7: Selectivity of CDK7 inhibition over CDK1 inhibition | SMILES
A (A=greater than 200 fold) | CC(C)c1cnn2c(N[C@@H](C)c3ccccc3-c3cc4ccccc4[nH]3)nc(N3CCC(N)CC3)nc12 [Compound 187]
A (A=greater than 200 fold) | COc1cccc(-c2cc3ccccc3[nH]2)c1CNc1nc(N2CCC(N)CC2)nc2c(C(C)C)cnn12 [Compound 186]
A (A=greater than 200 fold) | CC(C)c1cnn2c(NCc3c(O)cccc3-c3cc4ccccc4[nH]3)nc(N3CCC(N)CC3)nc12 [Compound 185]
A (A=greater than 200 fold) | Cc1[nH]c(-c2ccccc2CNc2nc(N3CCC(N)CC3)nc3c(C(C)C)cnn23)nc1C(=O)NC1CCOCC1 [Compound 178]

same assay, conditions: CDK7 over CDK2

CDK2/CDK7: Selectivity of CDK7 inhibition over CDK2 inhibition | SMILES
A (A=greater than 200 fold) | CC(C)c1cnn2c(N[C@@H](C)c3ccccc3-c3cc4ccccc4[nH]3)nc(N3CCC(N)CC3)nc12 [Compound 187]
A (A=greater than 200 fold) | COc1cccc(-c2cc3ccccc3[nH]2)c1CNc1nc(N2CCC(N)CC2)nc2c(C(C)C)cnn12 [Compound 186]
A (A=greater than 200 fold) | CC(C)c1cnn2c(NCc3c(O)cccc3-c3cc4ccccc4[nH]3)nc(N3CCC(N)CC3)nc12 [Compound 185]

SMILES | CDK2/CDK7: Selectivity of CDK7 inhibition over CDK2 inhibition
Cc1[nH]c(-c2ccccc2CNc2nc(N3CCC(N)CC3)nc3c(C(C)C)cnn23)nc1C(=O)NC1CCOCC1 [Compound 178] | B (B=less than 200 fold, but greater than 20 fold)

same assay, conditions: CDK7 over CDK5

SMILES | CDK5/CDK7: Selectivity of CDK7 inhibition over CDK5 inhibition
CC(C)c1cnn2c(N[C@@H](C)c3ccccc3-c3cc4ccccc4[nH]3)nc(N3CCC(N)CC3)nc12 [Compound 187] | A (A=greater than 200 fold)
COc1cccc(-c2cc3ccccc3[nH]2)c1CNc1nc(N2CCC(N)CC2)nc2c(C(C)C)cnn12 [Compound 186] | B (B=less than 200 fold, but greater than 20 fold)
CC(C)c1cnn2c(NCc3c(O)cccc3-c3cc4ccccc4[nH]3)nc(N3CCC(N)CC3)nc12 [Compound 185] | B (B=less than 200 fold, but greater than 20 fold)
Cc1[nH]c(-c2ccccc2CNc2nc(N3CCC(N)CC3)nc3c(C(C)C)cnn23)nc1C(=O)NC1CCOCC1 [Compound 178] | C (C=less than 20 fold)

same assay, conditions: read-out: CDK7 enzymatic activity (IC50 range)

IC50 [nM] | SMILES
< 100 | CC(C)c1cnn2c(N[C@@H](C)c3ccccc3-c3cc4ccccc4[nH]3)nc(N3CCC(N)CC3)nc12 [Compound 187]
< 100 | COc1cccc(-c2cc3ccccc3[nH]2)c1CNc1nc(N2CCC(N)CC2)nc2c(C(C)C)cnn12 [Compound 186]
< 100 | CC(C)c1cnn2c(NCc3c(O)cccc3-c3cc4ccccc4[nH]3)nc(N3CCC(N)CC3)nc12 [Compound 185]
< 100 | Cc1[nH]c(-c2ccccc2CNc2nc(N3CCC(N)CC3)nc3c(C(C)C)cnn23)nc1C(=O)NC1CCOCC1 [Compound 178]

system: H460; assay: Cellular H460 viability assay (CellTiter-Glo, 72 hours); assay type: cell-based; conditions: Homo sapiens, NCI-H460
In short: (§2)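 Luminescent ATP read-out (CellTiter-Glo) after 72 h compound exposure at 37 °C/5% CO2; duplicate wells; vehicle control DMSO <0.1% final; seeding density set per cell line.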

IC50 [nM] | SMILES
1000 to 10000 | CC(C)c1cnn2c(N[C@@H](C)c3ccccc3-c3cc4ccccc4[nH]3)nc(N3CCC(N)CC3)nc12 [Compound 187]
1000 to 10000 | COc1cccc(-c2cc3ccccc3[nH]2)c1CNc1nc(N2CCC(N)CC2)nc2c(C(C)C)cnn12 [Compound 186]
1000 to 10000 | CC(C)c1cnn2c(NCc3c(O)cccc3-c3cc4ccccc4[nH]3)nc(N3CCC(N)CC3)nc12 [Compound 185]
< 1000 | Cc1[nH]c(-c2ccccc2CNc2nc(N3CCC(N)CC3)nc3c(C(C)C)cnn23)nc1C(=O)NC1CCOCC1 [Compound 178]

system: MM.1S; assay: Cellular MM.1S viability assay (CellTiter-Glo, 72 hours); assay type: cell-based; conditions: Homo sapiens, MM1.S
Excerpt: Human T-cell acute lymphoblastic leukemia cell line, MOLT-4 (ATCC, Cat #CRL-1582), Human multiple myeloma cell line, RPMI-8226 (Invitrogen, Cat #22400-089) and MM.1S (ATCC, Cat #CRL-2974), NSCLC (Non-small cell lung cancer) cell line H460 (ATCC, Cat #HTB-177), Human colon colorectal carcinoma cell line HCT116 (ATCC, Cat #CCL-247), Human acute monocytic leukemia cell line MV4-11 (ATCC, Cat #CRL-9591), OVCAR-3 (ATCC, Cat #HTB-161) and A2780 (ECACC, Cat #93112519) were obtained from ATCC. Cells were grown in RPMI-1640 media (Invitrogen, Cat #22400-089) supplemented with 10% FBS (Invitrogen, Cat #10099141) and 1% penicillin/streptomycin (Invitrogen, Cat #15070063) and cultured at 37° C., 5% CO2 in a humidified chamber. All cell lines were routinely tested for mycoplasma.
The effect of the CDK7 inhibitor to inhibit the growth of target cancer cells was evaluated through the 72 hours time period of viability assay. Briefly, the candidate cell line ware plated in 96 well plate at the following density of cells respectively. 1×10^4 cells/well for MOLT-4, RPMI-8226, MV4-11 and MM.1S, 5×10^3 for H460, HCT116 and OVCAR-3 and IX 10^3 for A2780. After 24 hours, the cells were treated with various concentrations of the compound (ranging from 0.0015 uM to 10 uM). DMSO solvent without compound served as a control and final DMSO concentration less than 0.1%. After 72 hours of incubation at 37° C., 5% CO2 incubator, cells were analyzed for the viability using the CellTiter-Glo Luminescent Cell Viability Assay (Promega, Cat #G7570). All viability assays were performed in duplicate and Luminescence was read using an Envision (Perkin Elmer, USA). Data was analyzed using XLfit software.

IC50 [nM] | SMILES
1000 to 10000 | CC(C)c1cnn2c(N[C@@H](C)c3ccccc3-c3cc4ccccc4[nH]3)nc(N3CCC(N)CC3)nc12 [Compound 187]
1000 to 10000 | COc1cccc(-c2cc3ccccc3[nH]2)c1CNc1nc(N2CCC(N)CC2)nc2c(C(C)C)cnn12 [Compound 186]
1000 to 10000 | CC(C)c1cnn2c(NCc3c(O)cccc3-c3cc4ccccc4[nH]3)nc(N3CCC(N)CC3)nc12 [Compound 185]
≤ 1000 | Cc1[nH]c(-c2ccccc2CNc2nc(N3CCC(N)CC3)nc3c(C(C)C)cnn23)nc1C(=O)NC1CCOCC1 [Compound 178]

system: MV4-11; assay: Cellular MV4-11 viability assay (CellTiter-Glo, 72 hours); assay type: cell-based; conditions: Homo sapiens
In short: as §2

IC50 [nM] | SMILES
1000 to 10000 | CC(C)c1cnn2c(N[C@@H](C)c3ccccc3-c3cc4ccccc4[nH]3)nc(N3CCC(N)CC3)nc12 [Compound 187]
1000 to 10000 | COc1cccc(-c2cc3ccccc3[nH]2)c1CNc1nc(N2CCC(N)CC2)nc2c(C(C)C)cnn12 [Compound 186]
1000 to 10000 | CC(C)c1cnn2c(NCc3c(O)cccc3-c3cc4ccccc4[nH]3)nc(N3CCC(N)CC3)nc12 [Compound 185]
< 1000 | Cc1[nH]c(-c2ccccc2CNc2nc(N3CCC(N)CC3)nc3c(C(C)C)cnn23)nc1C(=O)NC1CCOCC1 [Compound 178]
